Test results reported in patent US9067924B2, “1,4 thiazepines/sulfones as BACE1 and/or BACE2 inhibitors” (HOFFMANN-LA ROCHE INC., priority 2011, dated 2015).

Tests used:
[1] = target: BACE1 (Homo sapiens (Human), UniProt P56817); assay: Cellular Aβ-lowering assay; format: cell-based; conditions: HEK293 cells expressing human APP695, Aβ40 in supernatant by ELISA
Method: Cellular Aβ-Lowering Assay:
Human HEK293 cells which are stably transfected with a vector expressing a cDNA of the human APP wt gene (APP695) were used to assess the potency of the compounds in a cellular assay. The cells were seeded in 96-well microtiter plates in cell culture medium (Iscove, plus 10% (v/v) fetal bovine serum, glutamine, penicillin/streptomycin) to about 80% confluence and the compounds were added at a 10× concentration in 1/10 volume of medium without FCS containing 8% DMSO (final concentration of DMSO was kept at 0.8% v/v). After 18-20 hrs incubation at 37° C. and 5% CO2 in a humidified incubator the culture supernatant was harvested for the determination of Aβ40 concentrations. 96 well ELISA plates (e.g., Nunc MaxiSorb) were coated with monoclonal antibody which specifically recognize the C-terminal end of Aβ40 (Brockhaus et al., NeuroReport 9, 1481-1486; 1998). After blocking of non-specific binding sites with e.g. 1% BSA and washing, the culture supernatants were added in suitable dilutions together with a horseradish peroxidase-coupled Aβ detection antibody (e.g., antibody 4G8, Senetek, Maryland Heights, Mo.) and incubated for 5 to 7 hrs. Subsequently the wells of the microtiter plate were washed extensively with Tris-buffered saline containing 0.05% Tween 20 and the assay was developed with tetramethylbenzidine/H2O2 in citric acid buffer. After stopping the reaction with one volume 1 N H2SO4 the reaction was measured in an ELISA reader at 450 nm wavelength. The concentrations of Aβ in the culture supernatants were calculated from a standard curve obtained with known amounts of pure Aβ peptide.

[2] = target: BACE2 (Rattus norvegicus (Rat), UniProt Q6IE75); assay: Assay for BACE inhibition by measuring cellular TMEM27 cleavage; format: cell-based; conditions: INS-TMEM27 (INS1e-derived) cells, shed hTMEM27 by ELISA
Chain of BACE2 (Q6IE75 63-514): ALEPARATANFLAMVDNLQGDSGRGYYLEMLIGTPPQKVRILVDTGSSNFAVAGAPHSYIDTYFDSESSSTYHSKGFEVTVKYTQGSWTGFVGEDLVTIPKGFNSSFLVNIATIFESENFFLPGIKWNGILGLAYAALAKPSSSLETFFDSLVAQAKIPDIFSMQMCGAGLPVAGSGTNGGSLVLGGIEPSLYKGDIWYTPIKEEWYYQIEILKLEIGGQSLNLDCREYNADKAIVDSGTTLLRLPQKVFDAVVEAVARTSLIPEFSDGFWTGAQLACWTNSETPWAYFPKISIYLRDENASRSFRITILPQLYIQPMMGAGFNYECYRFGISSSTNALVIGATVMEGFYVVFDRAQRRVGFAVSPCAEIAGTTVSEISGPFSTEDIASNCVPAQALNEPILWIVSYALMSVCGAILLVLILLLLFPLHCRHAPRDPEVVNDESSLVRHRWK
Text: Assay for BACE Inhibition by Measuring Cellular TMEM27 Cleavage:
The assay uses the principle of inhibition of human TMEM27 cleavage by endogenous cellular BACE2 in the Ins1e rat cell line and shedding from the cell surface into the culture medium, followed by detection in an ELISA assay Inhibition of BACE2 prevents the cleavage and shedding in a dose-dependent manner.
The stable cell line “INS-TMEM27” represents an INS1e-derived cell line with inducible expression (using the TetOn system) of full-length hTMEM27 in a doxycycline-dependent manner. The cells are cultured throughout the experiment in RPMI1640+Glutamax (Invitrogen) Penicillin/Streptomycin, 10% Fetal bovine serum, […], […], 100 micrograms/ml G418 and 100 microgram/ml hygromycin and are grown inadherent culture at 37° C. in a standard CO2 cell culture incubator.
INS-TMEM27 cells are seeded in 96-well plates. After 2 days in culture, BACE2 inhibitor is added in a range of concentrations as required by the assay and after a further two hours, doxycycline is added to a final concentration of 500 ng/ml. The cells are incubated for a further 46 hours and the supernatant harvested for detection of shed TMEM27.
An ELISA assay (using a pair of mouse anti-human-TMEM27 antibodies, raised against the extracellular domain of TMEM27) is used for detection of TMEM27 in the culture medium. An EC50 for BACE2 inhibition is calculated using the ELISA readout for each inhibitor concentration with standard curve-fitting software such as XLFit for the Excel spreadsheet program.

Chain of BACE1 (P56817 46-501): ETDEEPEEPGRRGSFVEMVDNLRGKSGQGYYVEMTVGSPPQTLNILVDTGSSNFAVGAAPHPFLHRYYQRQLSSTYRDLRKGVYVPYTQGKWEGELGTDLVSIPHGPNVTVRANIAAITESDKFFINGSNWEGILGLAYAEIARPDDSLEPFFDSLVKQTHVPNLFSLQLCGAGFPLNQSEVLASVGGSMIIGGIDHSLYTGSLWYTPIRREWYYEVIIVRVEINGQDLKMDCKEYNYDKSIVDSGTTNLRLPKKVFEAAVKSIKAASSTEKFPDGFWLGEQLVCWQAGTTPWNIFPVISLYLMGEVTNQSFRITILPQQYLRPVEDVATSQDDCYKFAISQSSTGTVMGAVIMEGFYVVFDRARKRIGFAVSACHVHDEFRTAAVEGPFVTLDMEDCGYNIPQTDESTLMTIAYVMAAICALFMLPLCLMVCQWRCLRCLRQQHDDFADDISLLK

Compound	IC50 [1]	IC50 [2]
C[C@]1(c2cc(NC(=O)c3ccc(C#N)cn3)ccc2F)N=C(N)CS(=O)(=O)[C@H]2COC[C@@H]21 (relative stereo) [Example 14, 5-Cyano-pyridine-2-carboxylic acid [3-((3aR,8S,8aS)-rel-6-amino-8-methyl-4,4-dioxo-3,3a,4,5,8,8a-hexahydro-1H-2-oxa-4λ^6-thia-7-aza-azulen-8-yl)-4-fluoro-phenyl]-amide]	78 nM	–
CC1SCC[C@@](C)(c2cc(NC(=O)c3ccc(F)cn3)ccc2F)N=C1N (stereo in doubt) [Example 5, 5-Fluoro-pyridine-2-carboxylic acid [3-((S)-3-amino-2,5-dimethyl-2,5,6,7-tetrahydro-[1,4]thiazepin-5-yl)-4-fluoro-phenyl]-amide]	170 nM	21 nM
CC1SCC[C@@](C)(c2cc(NC(=O)c3ccc(Cl)cn3)ccc2F)N=C1N (stereo in doubt) [Example 6, 5-Chloro-pyridine-2-carboxylic acid [3-((S)-3-amino-2,5-dimethyl-2,5,6,7-tetrahydro-[1,4]thiazepin-5-yl)-4-fluoro-phenyl]-amide]	140 nM	9 nM
CC1C(N)=N[C@](C)(c2cc(NC(=O)c3ccc(F)cn3)ccc2F)CCS1(=O)=O (stereo in doubt) [Example 7, 5-Fluoro-pyridine-2-carboxylic acid [3-((S)-3-amino-2,5-dimethyl-1,1-dioxo-2,5,6,7-tetrahydro-1H-1λ^6-[1,4]thiazepin-5-yl)-4-fluoro-phenyl]-amide]	4 nM	2 nM
CC1C(N)=N[C@](C)(c2cc(NC(=O)c3[nH]ncc3Cl)ccc2F)CCS1(=O)=O (stereo in doubt) [Example 9, 4-Chloro-2H-pyrazole-3-carboxylic acid [3-((S)-3-amino-2,5-dimethyl-1,1-dioxo-2,5,6,7-tetrahydro-1H-1λ^6-[1,4]thiazepin-5-yl)-4-fluoro-phenyl]-amide]	300 nM	858 nM
C[C@@]1(c2cc(NC(=O)c3ccc(Cl)cn3)ccc2F)CCSCC(N)=N1 [Example 1, 5-Chloro-pyridine-2-carboxylic acid [3-((S)-3-amino-5-methyl-2,5,6,7-tetrahydro-[1,4]thiazepin-5-yl)-4-fluoro-phenyl]-amide]	6.3 nM	167 nM
C[C@@]1(c2cc(NC(=O)c3ccc(F)cn3)ccc2F)CCSCC(N)=N1 [Example 2, 5-Fluoro-pyridine-2-carboxylic acid [3-((S)-3-amino-5-methyl-2,5,6,7-tetrahydro-[1,4]thiazepin-5-yl)-4-fluoro-phenyl]-amide]	16 nM	79 nM
C[C@@]1(c2cc(NC(=O)c3ccc(Cl)cn3)ccc2F)CCS(=O)(=O)CC(N)=N1 [Example 3, 5-Chloro-pyridine-2-carboxylic acid [3-((S)-3-amino-5-methyl-1,1-dioxo-2,5,6,7-tetrahydro-1H-1λ^6-[1,4]thiazepin-5-yl)-4-fluoro-phenyl]-amide]	3 nM	5 nM
C[C@@]1(c2cc(NC(=O)c3ccc(F)cn3)ccc2F)CCS(=O)(=O)CC(N)=N1 [Example 4, 5-Fluoro-pyridine-2-carboxylic acid [3-((S)-3-amino-5-methyl-1,1-dioxo-2,5,6,7-tetrahydro-1H-1λ^6-[1,4]thiazepin-5-yl)-4-fluoro-phenyl]amide]	20 nM	4 nM
CC1C(N)=N[C@](C)(c2cc(NC(=O)c3ccc(Cl)cn3)ccc2F)CCS1(=O)=O (stereo partly drawn) [Example 8, 5-Chloro-pyridine-2-carboxylic acid [3-((S)-3-amino-2,5-dimethyl-1,1-dioxo-2,5,6,7-tetrahydro-4H-1λ^6-[1,4]thiazepin-5-yl)-4-fluoro-phenyl]-amide]	30 nM	16 nM
CC1(C)C(N)=N[C@](C)(c2cc(NC(=O)c3ccc(F)cn3)ccc2F)CCS1(=O)=O [Example 10, 5-Fluoro-pyridine-2-carboxylic acid [3-((S)-3-amino-2,2,5-trimethyl-1,1-dioxo-2,5,6,7-tetrahydro-1H-1λ^6-[1,4]thiazepin-5-yl)-4-fluoro-phenyl]-amide]	62 nM	181 nM
CC1(C)C(N)=N[C@](C)(c2cc(NC(=O)c3[nH]ncc3Cl)ccc2F)CCS1(=O)=O [Example 11, 4-Chloro-2H-pyrazole-3-carboxylic acid [3-((S)-3-amino-2,2,5-trimethyl-1,1-dioxo-2,5,6,7-tetrahydro-1H-1λ^6-[1,4]thiazepin-5-yl)-4-fluoro-phenyl]-amide]	2290 nM	–
CC1(C)C(N)=N[C@](C)(c2cc(NC(=O)c3ccc(C#N)cn3)ccc2F)CCS1(=O)=O [Example 12, 5-Cyano-pyridine-2-carboxylic acid [3-((S)-3-amino-2,2,5-trimethyl-1,1-dioxo-2,5,6,7-tetrahydro-1H-1λ^6-[1,4]thiazepin-5-yl)-4-fluoro-phenyl]-amide]	53 nM	–
N#Cc1ccc(C(=O)Nc2ccc(F)c([C@]3(C(F)F)CCS(=O)(=O)CC(N)=N3)c2)nc1 [Example 13, 5-Cyano-pyridine-2-carboxylic acid [3-((S)-3-amino-5-difluoromethyl-1,1-dioxo-2,5,6,7-tetrahydro-1H-1λ^6-[1,4]thiazepin-5-yl)-4-fluoro-phenyl]-amide]	260 nM	–
